# Experimental data as given in US6855710B2, “Substituted indolines with an inhibitory effect on various kinases and complexes of CDKs” (Boehringer Ingelheim Pharma KG, priority 1998, dated 2005).
row,SMILES,melting point
1,"CN(C)CCN(C)S(=O)(=O)c1ccc(N/C(=C2\C(=O)Nc3ccc([N+](=O)[O-])cc32)c2ccccc2)cc1 [Example 402, (Z)-3-{1-[4-(N-(2-dimethylaminoethyl)-N-methyl-aminosulphonyl)-phenylamino]-1-phenyl-methylidene}-5-nitro-2-indolinone]",215 to 218 °C
2,"CN(C)Cc1cccc(N/C(=C2\C(=O)Nc3ccc([N+](=O)[O-])cc32)c2ccccc2)c1 [Example 107, (Z)-3-[1-(3-dimethylaminomethyl-phenylamino)-1-phenyl-methylidene]-5-nitro-2-indolinone]",214 to 217 °C
3,"CCS(=O)(=O)N(CC(=O)NCCN(C)C)c1ccc(N/C(=C2\C(=O)Nc3ccc([N+](=O)[O-])cc32)c2ccccc2)cc1 [Example 295, (Z)-3-{1-[4-(N-(2-dimethylamino-ethylaminocarbonylmethyl)-N-ethylsulphonyl-amino)-phenylamino]-1-phenyl-methylidene}-5-nitro-2-indolinone]",155 °C
4,"CCN(CCO)CCc1ccc(N/C(=C2\C(=O)Nc3ccc([N+](=O)[O-])cc32)c2ccccc2)cc1 [Example 131, (Z)-3-{1-[4-(2-(N-(2-hydroxyethyl)-N-ethyl-amino)-ethyl)-phenylamino]-1-phenyl-methylidene}-5-nitro-2-indolinone]",165 to 166 °C
5,"CS(=O)(=O)N(CCN1CCOCC1)c1cccc(N/C(=C2\C(=O)Nc3ccccc32)c2ccccc2)c1 [Example 325, (Z)-3-{1-[3-(N-(2-morpholinoethyl)-N-methylsulphonyl-amino)-phenylamino]-1-phenyl-methylidene}-2-indolinone]",177 to 179 °C
6,"O=C1Nc2ccc([N+](=O)[O-])cc2/C1=C(/Nc1ccc(CN2CCS(=O)(=O)CC2)cc1)c1ccccc1 [Example 231, (Z)-3-{1-[4-((1,1-dioxothiomorpholino)-methyl)-phenylamino]-1-phenyl-methylidene}-5-nitro-2-indolinone]",328 to 329 °C (dec.)
7,"CC(=O)N1C(=O)/C(=C(\Nc2ccc(CNC(=O)OC(C)(C)C)cc2)c2ccc(CN3C(=O)c4ccccc4C3=O)cc2)c2cc([N+](=O)[O-])ccc21 [Example 146, (Z)-3-[1-(4-tert.butoxycarbonylaminomethyl-phenylamino)-1-(4-phthalimidomethyl-phenyl)-methylidene]-1-acetyl-5-nitro-2-indolinone]",125 °C (dec.)
8,"CC(C)C(=O)N(CCN1CCOCC1)c1ccc(N/C(=C2\C(=O)Nc3ccc([N+](=O)[O-])cc32)c2ccccc2)cc1 [Example 336, (Z)-3-{1-[4-(N-(2-morpholinoethyl)-N-isopropylcarbonyl-amino)-phenylamino]-1-phenyl-methylidene}-5-nitro-2-indolinone]",254 °C
9,"O=C(O)CCNCc1ccc(N/C(=C2\C(=O)Nc3ccc([N+](=O)[O-])cc32)c2ccccc2)cc1 [Example 242, (Z)-3-{1-[4-(2-carboxy-ethylaminomethyl)-phenylamino]-1-phenyl-methylidene}-5-nitro-2-indolinone]",220 to 222 °C
10,"CC(C)(C)OC(=O)NCC(=O)NCc1cccc(N/C(=C2\C(=O)Nc3ccc([N+](=O)[O-])cc32)c2ccccc2)c1 [Example 136, (Z)-3-[1-(3-tert.butoxycarbonylaminomethylcarbonylaminomethyl-phenylamino)-1-phenyl-methylidene]-5-nitro-2-indolinone]",228 °C
11,"CNC(=O)C1CCN(Cc2ccc(N/C(=C3\C(=O)Nc4ccc([N+](=O)[O-])cc43)c3ccccc3)cc2)CC1 [Example 248, (Z)-3-{1-[4-(4-methylaminocarbonyl-piperidinomethyl)-phenylamino]-1-phenyl-methylidene}-5-nitro-2-indolinone]",263 to 265 °C
12,Cl.O=C1Nc2ccc([N+](=O)[O-])cc2/C1=C(/Nc1ccc(CNCc2ccccc2)cc1)c1ccccc1,298 to 300 °C
13,"CCC1CCN(Cc2ccc(N/C(=C3\C(=O)Nc4ccc([N+](=O)[O-])cc43)c3ccccc3)cc2)CC1 [Example 175, (Z)-3-{1-[4-(4-ethylpiperidinomethyl)-phenylamino]-1-phenyl-methylidene}-5-nitro-2-indolinone]",225 to 227 °C
14,"O=C1Nc2ccc([N+](=O)[O-])cc2/C1=C(/Nc1ccc(CNCCO)cc1)c1ccccc1 [Example 239, (Z)-3-{1-[4-(2-hydroxy-ethylaminomethyl)-phenylamino]-1-phenyl-methylidene}-5-nitro-2-indolinone]",196 to 198 °C
15,"CC(C)(C)OC(=O)N(Cc1ccccc1)Cc1ccc(N/C(=C2\C(=O)Nc3ccc([N+](=O)[O-])cc32)c2ccccc2)cc1 [Example 236, (Z)-3-{1-[4-(N-benzyl-N-tert.butoxycarbonyl-aminomethyl)-phenylamino]-1-phenyl-methylidene}-5-nitro-2-indolinone]",202 to 203 °C (dec.)
16,"O=C1Nc2ccc([N+](=O)[O-])cc2/C1=C(/Nc1ccc(CNc2ncccn2)cc1)c1ccccc1 [Example 271, (Z)-3-{1-[4-(pyrimidin-2-ylaminomethyl)-phenylamino]-1-phenyl-methylidene}-5-nitro-2-indolinone]",284 to 286 °C
17,"CN(Cc1ccc(N/C(=C2\C(=O)Nc3ccc([N+](=O)[O-])cc32)c2ccccc2)cc1)c1ccccn1 [Example 235, (Z)-3-{1-[4-(N-methyl-N-(2-pyridyl)-aminomethyl)-phenylamino]-1-phenyl-methylidene}-5-nitro-2-indolinone]",213 to 216 °C
18,"CS(=O)(=O)N(CCN1CCOCC1)c1ccc(N/C(=C2\C(=O)Nc3ccc([N+](=O)[O-])cc32)c2ccccc2)cc1 [Example 203, (Z)-3-{1-[4-(N-(2-morpholinoethyl)-N-methylsulphonyl-amino)-phenylamino]-1-phenyl-methylidene}-5-nitro-2-indolinone]",255 to 257 °C
19,"O=CNc1ccc(N/C(=C2\C(=O)Nc3ccc([N+](=O)[O-])cc32)c2ccccc2)cc1 [Example 92, (Z)-3-[1-(4-formylamino-phenylamino)-1-phenyl-methylidene]-5-nitro-2-indolinone]",355 to 356 °C (dec.)
20,"CC(C)(C)OC(=O)Nc1ccc(N/C(=C2\C(=O)Nc3ccccc32)c2ccccc2)cc1 [Example 28, (Z)-3-[1-(4-tert.butoxycarbonylamino-phenylamino)-1-phenyl-methylidene]-2-indolinone]",244 to 246 °C
21,"COC(=O)/C=C/c1ccc(/C(Nc2ccc(OC)cc2)=C2/C(=O)Nc3ccc([N+](=O)[O-])cc32)cc1 [Example 435, (Z)-3-{1-(4-methoxyphenylamino)-1-[(E)-4-(2-methoxycarbonylethenyl)-phenyl]-methylidene}-5-nitro-2-indolinone]",266 to 270 °C

# Next, values leading:
row,melting point,SMILES
1,229 to 232 °C,"CCOC(=O)CN(C(=O)CC)c1ccc(N/C(=C2\C(=O)Nc3ccccc32)c2ccccc2)cc1 [Example 356, (Z)-3-{1-[4-(N-ethoxycarbonylmethyl-N-propionyl-amino)-phenylamino]-1-phenyl-methylidene}-2-indolinone]"
2,238 to 239 °C,"CN(C(=O)CN)c1ccc(N/C(=C2\C(=O)Nc3ccccc32)c2ccccc2)cc1 [Example 366, (Z)-3-{1-[4-(N-aminomethylcarbonyl-N-methyl-amino)-phenylamino]-1-phenyl-methylidene}-2-indolinone]"
3,276 °C (dec.),"CC(=O)N(CC(=O)O)c1ccc(N/C(=C2\C(=O)Nc3ccccc32)c2ccccc2)cc1 [Example 353, (Z)-3-{1-[4-(N-carboxymethyl-N-acetyl-amino)-phenylamino]-1-phenyl-methylidene}-2-indolinone]"
4,255 to 258 °C (dec.),CN(C(=O)CN1CCNCC1)c1ccc(N/C(=C2\C(=O)Nc3ccccc32)c2ccccc2)cc1.Cl.Cl
5,235 to 237 °C,"N=C(N)c1cccc(N/C(=C2\C(=O)Nc3ccccc32)c2ccccc2)c1 [Example 64, (Z)-3-[1-(3-amidinophenylamino)-1-phenyl-methylidene]-2-indolinone]"
6,236 °C (dec.),"O=C(O)CNS(=O)(=O)c1ccc(N/C(=C2\C(=O)Nc3ccccc32)c2ccccc2)cc1 [Example 407, (Z)-3-{1-[4-(carboxymethylaminosulphonyl)-phenylamino]-1-phenyl-methylidene}-2-indolinone]"
7,197 to 199 °C,"COCCN(C)CC(=O)N(C)c1ccc(N/C(=C2\C(=O)Nc3ccccc32)c2ccccc2)cc1 [Example 372, (Z)-3-{1-[4-(N—(N-(2-methoxyethyl)-N-methyl-aminomethylcarbonyl)-N-methyl-amino)-phenylamino]-1-phenyl-methylidene}-2-indolinone]"
8,245 °C,"CCS(=O)(=O)N(CCN(C)C)c1ccc(N/C(=C2\C(=O)Nc3ccccc32)c2ccccc2)cc1 [Example 307, (Z)-3-{1-[4-(N-(2-dimethylaminoethyl)-N-ethylsulphonyl-amino)-phenylamino]-1-phenyl-methylidene}-2-indolinone]"
9,240 to 242 °C,"O=C1Nc2ccccc2/C1=C(/Nc1ccc(NS(=O)(=O)CCN2CCOCC2)cc1)c1ccccc1 [Example 381, (Z)-3-{1-[4-(2-morpholinoethylsulphonylamino)-phenylamino]-1-phenyl-methylidene}-2-indolinone]"
10,268 to 270 °C,"CCCC(=O)N(CCN(C)C)c1ccc(N/C(=C2\C(=O)Nc3ccccc32)c2ccccc2)cc1 [Example 343, (Z)-3-{1-[4-(N-(2-dimethylaminoethyl)-N-propylcarbonyl-amino)-phenylamino]-1-phenyl-methylidene}-2-indolinone]"
11,267 to 269 °C,CCN(CC)CC(=O)Nc1ccc(N/C(=C2\C(=O)Nc3ccccc32)c2ccccc2)cc1.Cl
12,325 °C,"O=C1Nc2ccccc2/C1=C(/Nc1ccccc1)c1ccccc1 [Example 1, (Z)-3-(1-Anilino-1-phenyl-methylidene)-2-indolinone]"
13,202 to 204 °C,CCN(CC)C(=O)c1ccc(N/C(=C2\C(=O)Nc3ccccc32)c2ccccc2)cc1
14,175 to 185 °C,"NCc1cccc(N/C(=C2\C(=O)Nc3ccccc32)c2ccccc2)c1 [Example 68, (Z)-3-[1-(3-aminomethyl-phenylamino)-1-phenyl-methylidene]-2-indolinone]"
